Columns and labels:
PI3K-p110β = PI3K-p110β (Homo sapiens, UniProt P42338); assay: Fold isoform selectivity from Ki determination, non-radiometric ADP-Glo assay (Proqinase); format: biochemical; conditions: class I PI3K isoforms
From the text: (§1) Fold isoform selectivity inhibition against class I PI3K isoforms, as confirmed following Ki determination using the non-radiometric ADP-Glo™ assay (Promega, Madison, Wis., USA) at Proqinase GmbH is listed below.

PI3K-p110δ = PI3K-p110δ (Homo sapiens, UniProt O00329); assay: as above; format: biochemical; conditions: class I PI3K isoforms
Sequence of PI3K-p110δ (O00329 whole entry, canonical isoform): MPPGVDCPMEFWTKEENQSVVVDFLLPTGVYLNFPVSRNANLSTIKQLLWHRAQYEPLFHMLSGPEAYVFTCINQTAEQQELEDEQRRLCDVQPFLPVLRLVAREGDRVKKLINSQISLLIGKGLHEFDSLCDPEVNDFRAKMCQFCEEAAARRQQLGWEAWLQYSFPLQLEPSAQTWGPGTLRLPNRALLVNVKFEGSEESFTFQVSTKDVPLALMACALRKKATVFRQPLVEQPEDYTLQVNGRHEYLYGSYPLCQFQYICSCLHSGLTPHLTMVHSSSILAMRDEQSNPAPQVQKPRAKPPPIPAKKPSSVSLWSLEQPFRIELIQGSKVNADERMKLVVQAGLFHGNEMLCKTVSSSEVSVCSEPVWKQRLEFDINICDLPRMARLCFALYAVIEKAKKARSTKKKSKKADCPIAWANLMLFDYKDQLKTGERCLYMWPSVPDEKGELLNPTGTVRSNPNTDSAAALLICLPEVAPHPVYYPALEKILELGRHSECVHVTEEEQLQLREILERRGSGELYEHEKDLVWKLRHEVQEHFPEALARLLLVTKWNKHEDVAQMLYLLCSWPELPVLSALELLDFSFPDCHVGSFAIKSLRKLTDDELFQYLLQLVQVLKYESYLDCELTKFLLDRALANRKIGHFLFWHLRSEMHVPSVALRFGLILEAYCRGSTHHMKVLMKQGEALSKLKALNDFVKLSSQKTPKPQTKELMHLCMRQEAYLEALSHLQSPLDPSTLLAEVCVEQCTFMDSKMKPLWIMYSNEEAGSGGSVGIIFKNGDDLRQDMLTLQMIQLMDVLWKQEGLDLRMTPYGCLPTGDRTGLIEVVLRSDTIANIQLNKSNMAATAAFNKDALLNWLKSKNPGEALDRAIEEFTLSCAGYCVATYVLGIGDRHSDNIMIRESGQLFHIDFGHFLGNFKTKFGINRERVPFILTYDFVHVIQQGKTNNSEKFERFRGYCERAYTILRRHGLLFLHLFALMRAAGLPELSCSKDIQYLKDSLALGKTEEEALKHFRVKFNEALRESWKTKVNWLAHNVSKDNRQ
Sequence of PI3K-p110δ (P27986 whole entry partner, canonical isoform): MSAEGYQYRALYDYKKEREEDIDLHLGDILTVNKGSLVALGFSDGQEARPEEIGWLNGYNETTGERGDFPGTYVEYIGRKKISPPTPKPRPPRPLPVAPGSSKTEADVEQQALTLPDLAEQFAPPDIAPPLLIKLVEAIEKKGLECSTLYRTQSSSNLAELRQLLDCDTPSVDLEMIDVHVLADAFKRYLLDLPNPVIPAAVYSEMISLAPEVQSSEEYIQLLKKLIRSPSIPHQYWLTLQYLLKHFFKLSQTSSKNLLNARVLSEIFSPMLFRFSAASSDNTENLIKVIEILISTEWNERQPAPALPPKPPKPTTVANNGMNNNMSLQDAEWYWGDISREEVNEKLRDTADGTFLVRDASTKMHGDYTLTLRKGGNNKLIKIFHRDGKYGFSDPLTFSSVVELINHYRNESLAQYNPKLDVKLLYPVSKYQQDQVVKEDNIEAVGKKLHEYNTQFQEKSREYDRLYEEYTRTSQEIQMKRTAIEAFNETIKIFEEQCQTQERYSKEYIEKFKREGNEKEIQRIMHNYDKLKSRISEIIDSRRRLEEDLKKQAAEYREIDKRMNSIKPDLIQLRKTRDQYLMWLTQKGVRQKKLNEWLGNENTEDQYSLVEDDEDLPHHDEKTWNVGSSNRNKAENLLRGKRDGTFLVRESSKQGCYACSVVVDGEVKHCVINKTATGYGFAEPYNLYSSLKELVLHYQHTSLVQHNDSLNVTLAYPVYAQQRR
From the text: as §1

[1] = Rodent pharmacokinetics: oral bioavailability and clearance, plasma; format: in vivo, mouse; conditions: for clearance: male, CD1, mouse, iv
Description: The following protocol was used to determine oral bioavailability and clearance.
(§2) The results are shown below. • Species=male mouse; • Strain=CD1, • n=3 male mice per time point per route; • Terminal blood sampling at 8 time points (5 min, 10 min, 0.5 hr, 1 hr, 3 hr, 6 hr, 8 hr and, 24 hr); • Collection of plasma, bio-analysis and report of pharmacokinetic parameters.
Formulation: 10% DMSO, 15% Cremophor, 75% Saline
Dosing: 10 mg/kg P.O. and 5 mg/kg I.V.
as §2, with “parameters. • Formulation: 10% DMSO, 90 & saline” for “parameters.”

[2] = IV, 5 mg/kg, male CD1 mouse plasma, free base
[3] = PO, 10 mg/kg, male CD1 mouse plasma, free base

Sequence of PI3K-p110β (P42338 whole entry, canonical isoform): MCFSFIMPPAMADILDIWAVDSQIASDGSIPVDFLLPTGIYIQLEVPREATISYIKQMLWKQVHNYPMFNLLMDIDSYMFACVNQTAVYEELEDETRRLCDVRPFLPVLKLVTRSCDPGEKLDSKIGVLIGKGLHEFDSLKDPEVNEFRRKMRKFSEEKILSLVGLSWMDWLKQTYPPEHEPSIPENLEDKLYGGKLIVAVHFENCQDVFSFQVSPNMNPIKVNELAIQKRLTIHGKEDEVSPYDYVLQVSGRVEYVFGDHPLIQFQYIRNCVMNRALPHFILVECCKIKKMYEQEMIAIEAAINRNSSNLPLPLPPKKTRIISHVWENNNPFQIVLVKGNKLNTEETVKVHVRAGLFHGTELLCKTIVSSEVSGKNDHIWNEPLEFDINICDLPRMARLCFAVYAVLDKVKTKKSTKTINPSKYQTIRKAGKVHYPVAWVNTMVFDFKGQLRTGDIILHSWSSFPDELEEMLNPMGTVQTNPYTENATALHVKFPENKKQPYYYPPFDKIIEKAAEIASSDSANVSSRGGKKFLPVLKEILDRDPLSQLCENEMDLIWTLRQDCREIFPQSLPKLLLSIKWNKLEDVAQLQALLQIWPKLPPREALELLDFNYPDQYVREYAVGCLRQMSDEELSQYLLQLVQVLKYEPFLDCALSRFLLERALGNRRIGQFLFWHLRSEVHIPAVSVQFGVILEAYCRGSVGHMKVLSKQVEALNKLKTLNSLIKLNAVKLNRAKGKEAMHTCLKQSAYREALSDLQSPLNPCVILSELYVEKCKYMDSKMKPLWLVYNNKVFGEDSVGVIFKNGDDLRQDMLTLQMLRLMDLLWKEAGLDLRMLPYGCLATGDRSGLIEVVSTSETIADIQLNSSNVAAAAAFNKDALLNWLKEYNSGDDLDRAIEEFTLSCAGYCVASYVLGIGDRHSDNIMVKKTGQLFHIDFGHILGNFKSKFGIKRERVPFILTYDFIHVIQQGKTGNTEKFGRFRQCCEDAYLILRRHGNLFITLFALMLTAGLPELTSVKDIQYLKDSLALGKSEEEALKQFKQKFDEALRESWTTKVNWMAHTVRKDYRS
Sequence of PI3K-p110β (P27986 whole entry partner, canonical isoform): as the sequence (P27986 whole entry partner, canonical isoform) above

FOLD Ki p110β/p110α (PI3K-p110β)	FOLD Ki p110δ/p110α (PI3K-p110δ)	SMILES	further results
* (* <10x)	* (* <10x)	COC1CN(Cc2cnc3oc4c(N5CCOCC5)nc(-c5cc(C(F)(F)F)cc6[nH]ccc56)nc4c3c2)C1 [Example L, 12-[(3-Methoxyazetidin-1-yl)methyl]-6-(morpholin-4-yl)-4-[6-(trifluoromethyl)-1H-indol-4-yl]-8-oxa-3,5,10-triazatricyclo[7.4.0.0^2,7]trideca-1(13),2(7),3,5,9,11-hexaene]	
* (* <10x)	** (** ≥10x < 50x)	COC1CN(Cc2cnc3oc4c(N5CCOCC5)nc(-c5ccc(F)c6[nH]ccc56)nc4c3c2)C1 [Example N, 4-(7-Fluoro-1H-indol-4-yl)-12-[(3-methoxyazetidin-1-yl)methyl]-6-(morpholin-4-yl)-8-oxa-3,5,10-triazatricyclo[7.4.0.0^2,7]trideca-1(13),2(7),3,5,9,11-hexaene]	
* (* <10x)	* (* <10x)	Fc1ccc2[nH]ccc2c1-c1nc(N2CCOCC2)c2oc3ncc(N4CCOCC4)cc3c2n1 [Example O, 4-(5-Fluoro-1H-indol-4-yl)-6,12-bis(morpholin-4-yl)-8-oxa-3,5,10-triazatricyclo[7.4.0.0^2,7]trideca-1(9),2,4,6,10,12-hexaene]	
* (* <10x)	** (** ≥10x < 50x)	CCN1CCN(Cc2cnc3oc4c(N5CCOCC5)nc(-c5c(F)ccc6[nH]ccc56)nc4c3c2)CC1=O [Example P]	
** (** ≥10x < 50x)	** (** ≥10x < 50x)	COC1CN(Cc2cnc3oc4c(N5CCOCC5)nc(-c5cccc6[nH]cc(F)c56)nc4c3c2)C1 [Example Q]	

More lines, now with the values behind:

SMILES	FOLD Ki p110β/p110α (PI3K-p110β)	FOLD Ki p110δ/p110α (PI3K-p110δ)	further results
Fc1cc(-c2nc(N3CCOCC3)c3oc4ncc(CN5CCC6(CC5)COC6)cc4c3n2)c2cc[nH]c2c1 [Example B, 4-(6-Fluoro-1H-indol-4-yl)-6-(morpholin-4-yl)-12-{2-oxa-7-azaspiro[3.5]nonan-7-ylmethyl}-8-oxa-3,5,10-triazatricyclo[7.4.0.0^2,7]trideca-1(13),2(7),3,5,9,11-hexaene]	** (** ≥10x < 50x)	*** (*** ≥50x < 100x)	
Fc1ccc2[nH]ccc2c1-c1nc(N2CCOCC2)c2oc3ncc(CN4CCC5(CC4)COC5)cc3c2n1 [Example D, 4-(5-Fluoro-1H-indol-4-yl)-6-(morpholin-4-yl)-12-{2-oxa-7-azaspiro[3.5]nonan-7-ylmethyl}-8-oxa-3,5,10-triazatricyclo[7.4.0.0^2,7]trideca-1(13),2(7),3,5,9,11-hexaene]	*** (*** ≥50x < 100x)	*** (*** ≥50x < 100x)	
COC1CN(Cc2cnc3oc4c(N5CCOCC5)nc(-c5c(F)ccc6[nH]ccc56)nc4c3c2)C1 [Example E, 4-(5-Fluoro-1H-indol-4-yl)-12-[(3-methoxyazetidin-1-yl)methyl]-6-(morpholin-4-yl)-8-oxa-3,5,10-triazatricyclo[7.4.0.0^2,7]trideca-1(13),2(7),3,5,9,11-hexaene]	** (** ≥10x < 50x)	** (** ≥10x < 50x)	AUC [1, 2]: 2930 ng·h/mL; AUC(0-inf) [1, 2]: 3010 ng·h/mL; AUClast [1, 2]: 2930 ng·h/mL; Cmax [1, 2]: 3620 ng/mL; Tmax [1, 2]: 4.8 min; Vd [1, 2]: 1.29 L/kg; half-life ([1]; IV, 5 mg/kg, male CD1 mouse plasma, free base, 10% DMSO, 15% Cremophor, 75% Saline): 33 min; AUC [1, 3]: 2780 ng·h/mL; AUC(0-inf) [1, 3]: 2830 ng·h/mL; AUC(0-t) [1, 3]: 2780 ng·h/mL; Cmax [1, 3]: 1290 ng/mL; Tmax [1, 3]: 30 min; half-life ([1]; PO, 10 mg/kg, male CD1 mouse plasma, free base, 10% DMSO, 15% Cremophor, 75% Saline): 80.4 min; clearance ([1]; plasma, 5 mg/kg, male CD1 mouse plasma, free base): 28 mL/min/kg; bioavailability ([1]; plasma, oral, 10 mg/kg P.O. and 5 mg/kg I.V., male CD1 mouse, free base, 10% DMSO, 15% Cremophor, 75% Saline, read-out: Oral bioavailability (F)): 47%
COC1CN(Cc2cnc3oc4c(N5CCOCC5)nc(-c5cccc6[nH]c(C(F)(F)F)cc56)nc4c3c2)C1 [Example H, 12-[(3-Methoxyazetidin-1-yl)methyl]-6-(morpholin-4-yl)-4-[2-(trifluoromethyl)-1H-indol-4-yl]-8-oxa-3,5,10-triazatricyclo[7.4.0.0^2,7]trideca-1(13),2(7),3,5,9,11-hexaene]	* (* <10x)	* (* <10x)	
c1cc(-c2nc(N3CCOCC3)c3oc4ncc(CN5CCCCC5)cc4c3n2)c2cc[nH]c2c1 [Example I in WO 2011/021038, reference compound]			clearance ([1]; plasma, 5 mg/kg, 5 mg/kg I.V., male CD1 mouse, mesylate salt, 10% DMSO, 90 & saline): 66 mL/min/kg
COC1CN(Cc2cnc3oc4c(N5CCOCC5)nc(-c5cc(F)cc6[nH]ccc56)nc4c3c2)C1 [Example I, 4-(6-Fluoro-1H-indol-4-yl)-12-[(3-methoxyazetidin-1-yl)methyl]-6-(morpholin-4-yl)-8-oxa-3,5,10-triazatricyclo[7.4.0.0^2,7]trideca-1(13),2(7),3,5,9,11-hexaene]	*** (*** ≥50x < 100x)	*** (*** ≥50x < 100x)	
COC1CN(Cc2cnc3sc4c(N5CCOCC5)nc(-c5c(F)ccc6[nH]ccc56)nc4c3c2)C1 [Example K, 4-(5-Fluoro-1H-indol-4-yl)-12-[(3-methoxyazetidin-1-yl)methyl]-6-(morpholin-4-yl)-8-thia-3,5,10-triazatricyclo[7.4.0.0^2,7]trideca-1(13),2(7),3,5,9,11-hexaene]	* (* <10x)	* (* <10x)	

Source: patent US10377764B2, “Tricyclic heterocyclic compounds as phosphoinositide 3-kinase inhibitors” (Karus Therapeutics Limited, priority 2015, dated 2019)
